Test results from PMC10088252.
Where two headings read alike, the source gives them in different places.

O=C(Nc1ccc(Oc2ccnc3c2CCN3)c(F)c1)c1c[nH]cc(-c2ccc(F)cc2)c1=O
3 (25.0) n (%): TRAE Elevated ALT, any grade (300 mg QD (n=12)) | TRAE Elevated blood creatinine, any grade (300 mg QD (n=12)) | TRAE Nausea, any grade (300 mg QD (n=12))
2 (16.7) n (%): TRAE Constipation, any grade (300 mg QD (n=12)) | TRAE Decreased Ccr, any grade (300 mg QD (n=12)) | TRAE Decreased appetite, any grade (300 mg QD (n=12)) | TRAE Elevated AST, any grade (300 mg QD (n=12))
0 n (%): TRAE Accessory nerve disorder, grade 3-4 (300 mg QD (n=12)) | TRAE Activated partial thromboplastin time prolonged, grade 3-4 (300 mg QD (n=12)) | TRAE Anaemia, any grade (300 mg QD (n=12)) | TRAE Anaemia, grade 3-4 (300 mg QD (n=12)) | TRAE Anaesthesia oral, any grade (300 mg QD (n=12)) | TRAE Anaesthesia oral, grade 3-4 (300 mg QD (n=12)) | TRAE Arrhythmia, any grade (300 mg QD (n=12)) | TRAE Arrhythmia, grade 3-4 (300 mg QD (n=12)) | TRAE Arthralgia, any grade (300 mg QD (n=12)) | TRAE Arthralgia, grade 3-4 (300 mg QD (n=12)) | TRAE Asthenia, any grade (300 mg QD (n=12)) | TRAE Asthenia, grade 3-4 (300 mg QD (n=12)) | TRAE Blister, any grade (300 mg QD (n=12)) | TRAE Blister, grade 3-4 (300 mg QD (n=12)) | TRAE Chest discomfort, grade 3-4 (300 mg QD (n=12)) | TRAE Chronic kidney disease, any grade (300 mg QD (n=12)) | TRAE Chronic kidney disease, grade 3-4 (300 mg QD (n=12)) | TRAE Constipation, grade 3-4 (300 mg QD (n=12)) | TRAE Cough, any grade (300 mg QD (n=12)) | TRAE Cough, grade 3-4 (300 mg QD (n=12)) | TRAE Decreased Ccr, grade 3-4 (300 mg QD (n=12)) | TRAE Decreased appetite, grade 3-4 (300 mg QD (n=12)) | TRAE Diarrhoea, grade 3-4 (300 mg QD (n=12)) | TRAE Dizziness, grade 3-4 (300 mg QD (n=12)) | TRAE Dry mouth, grade 3-4 (300 mg QD (n=12)) | TRAE Dysgeusia, grade 3-4 (300 mg QD (n=12)) | TRAE Dyskinesia, any grade (300 mg QD (n=12)) | TRAE Dyskinesia, grade 3-4 (300 mg QD (n=12)) | TRAE Dysphonia, any grade (300 mg QD (n=12)) | TRAE Dysphonia, grade 3-4 (300 mg QD (n=12)) | TRAE Dyspnoea, any grade (300 mg QD (n=12)) | TRAE Dyspnoea, grade 3-4 (300 mg QD (n=12)) | TRAE Electrocardiogram QT prolonged, grade 3-4 (300 mg QD (n=12)) | TRAE Elevated ALT, grade 3-4 (300 mg QD (n=12)) | TRAE Elevated AST, grade 3-4 (300 mg QD (n=12)) | TRAE Elevated D dimer, any grade (300 mg QD (n=12)) | TRAE Elevated D dimer, grade 3-4 (300 mg QD (n=12)) | TRAE Elevated GGT, any grade (300 mg QD (n=12)) | TRAE Elevated GGT, grade 3-4 (300 mg QD (n=12)) | TRAE Elevated LDH, any grade (300 mg QD (n=12)) | TRAE Elevated LDH, grade 3-4 (300 mg QD (n=12)) | TRAE Elevated alpha-HBDH, any grade (300 mg QD (n=12)) | TRAE Elevated alpha-HBDH, grade 3-4 (300 mg QD (n=12)) | TRAE Elevated bilirubin, any grade (300 mg QD (n=12)) | TRAE Elevated bilirubin, grade 3-4 (300 mg QD (n=12)) | TRAE Elevated blood creatinine, grade 3-4 (300 mg QD (n=12)) | TRAE Elevated creatine phosphokinase, any grade (300 mg QD (n=12)) | TRAE Elevated creatine phosphokinase, grade 3-4 (300 mg QD (n=12)) | TRAE Elevated serum urea, grade 3-4 (300 mg QD (n=12)) | TRAE Elevated troponin, any grade (300 mg QD (n=12)) | TRAE Elevated troponin, grade 3-4 (300 mg QD (n=12)) | TRAE Genital rash, any grade (300 mg QD (n=12)) | TRAE Genital rash, grade 3-4 (300 mg QD (n=12)) | TRAE Haematuria, any grade (300 mg QD (n=12)) | TRAE Haematuria, grade 3-4 (300 mg QD (n=12)) | TRAE Headache, grade 3-4 (300 mg QD (n=12)) | TRAE Hyperhidrosis, any grade (300 mg QD (n=12)) | TRAE Hyperhidrosis, grade 3-4 (300 mg QD (n=12)) | TRAE Hyperlipidaemia, any grade (300 mg QD (n=12)) | TRAE Hyperlipidaemia, grade 3-4 (300 mg QD (n=12)) | TRAE Hypertension, grade 3-4 (300 mg QD (n=12)) | TRAE Hypoaesthesia oral, any grade (300 mg QD (n=12)) | TRAE Hypoaesthesia oral, grade 3-4 (300 mg QD (n=12)) | TRAE Hypocalcaemia, any grade (300 mg QD (n=12)) | TRAE Hypocalcaemia, grade 3-4 (300 mg QD (n=12)) | TRAE Hypotension, grade 3-4 (300 mg QD (n=12)) | TRAE Insomnia, grade 3-4 (300 mg QD (n=12)) | TRAE Leukopenia, any grade (300 mg QD (n=12)) | TRAE Leukopenia, grade 3-4 (300 mg QD (n=12)) | TRAE Nausea, grade 3-4 (300 mg QD (n=12)) | TRAE Neuritis, any grade (300 mg QD (n=12)) | TRAE Neuritis, grade 3-4 (300 mg QD (n=12)) | TRAE Occult blood, any grade (300 mg QD (n=12)) | TRAE Occult blood, grade 3-4 (300 mg QD (n=12)) | TRAE Oedema peripheral, any grade (300 mg QD (n=12)) | TRAE Oedema peripheral, grade 3-4 (300 mg QD (n=12)) | TRAE Onycholysis, any grade (300 mg QD (n=12)) | TRAE Onycholysis, grade 3-4 (300 mg QD (n=12)) | TRAE Oropharyngeal pain, any grade (300 mg QD (n=12)) | TRAE Oropharyngeal pain, grade 3-4 (300 mg QD (n=12)) | TRAE PPE, grade 3-4 (300 mg QD (n=12)) | TRAE Paraesthesia, any grade (300 mg QD (n=12)) | TRAE Paraesthesia, grade 3-4 (300 mg QD (n=12)) | TRAE Proteinuria, any grade (300 mg QD (n=12)) | TRAE Proteinuria, grade 3-4 (300 mg QD (n=12)) | TRAE Pruritus, any grade (300 mg QD (n=12)) | TRAE Pruritus, grade 3-4 (300 mg QD (n=12)) | TRAE Rash maculo-papular, grade 3-4 (300 mg QD (n=12)) | TRAE Sinus tachycardia, any grade (300 mg QD (n=12)) | TRAE Sinus tachycardia, grade 3-4 (300 mg QD (n=12)) | TRAE Skin fissures, any grade (300 mg QD (n=12)) | TRAE Skin fissures, grade 3-4 (300 mg QD (n=12)) | TRAE Supraventricular extrasystoles, any grade (300 mg QD (n=12)) | TRAE Supraventricular extrasystoles, grade 3-4 (300 mg QD (n=12)) | TRAE Thrombocytopenia, any grade (300 mg QD (n=12)) | TRAE Thrombocytopenia, grade 3-4 (300 mg QD (n=12)) | TRAE Upper respiratory tract infection, grade 3-4 (300 mg QD (n=12)) | TRAE Urinary retention, any grade (300 mg QD (n=12)) | TRAE Urinary retention, grade 3-4 (300 mg QD (n=12)) | TRAE Urinary tract infection, any grade (300 mg QD (n=12)) | TRAE Urinary tract infection, grade 3-4 (300 mg QD (n=12)) | TRAE Ventricular arrhythmia, grade 3-4 (300 mg QD (n=12)) | TRAE Ventricular extrasystoles, grade 3-4 (300 mg QD (n=12)) | TRAE Vomiting, any grade (300 mg QD (n=12)) | TRAE Vomiting, grade 3-4 (300 mg QD (n=12)) | TRAE Weight loss, any grade (300 mg QD (n=12)) | TRAE Weight loss, grade 3-4 (300 mg QD (n=12)) | TRAE Accessory nerve disorder, any grade (400 mg BID (n=4)) | TRAE Accessory nerve disorder, grade 3-4 (400 mg BID (n=4)) | TRAE Activated partial thromboplastin time prolonged, any grade (400 mg BID (n=4)) | TRAE Activated partial thromboplastin time prolonged, grade 3-4 (400 mg BID (n=4)) | TRAE Anaemia, any grade (400 mg BID (n=4)) | TRAE Anaemia, grade 3-4 (400 mg BID (n=4)) | TRAE Anaesthesia oral, any grade (400 mg BID (n=4)) | TRAE Anaesthesia oral, grade 3-4 (400 mg BID (n=4)) | TRAE Arrhythmia, any grade (400 mg BID (n=4)) | TRAE Arrhythmia, grade 3-4 (400 mg BID (n=4)) | TRAE Arthralgia, any grade (400 mg BID (n=4)) | TRAE Arthralgia, grade 3-4 (400 mg BID (n=4)) | TRAE Asthenia, any grade (400 mg BID (n=4)) | TRAE Asthenia, grade 3-4 (400 mg BID (n=4)) | TRAE Blister, any grade (400 mg BID (n=4)) | TRAE Blister, grade 3-4 (400 mg BID (n=4)) | TRAE Chest discomfort, any grade (400 mg BID (n=4)) | TRAE Chest discomfort, grade 3-4 (400 mg BID (n=4)) | TRAE Chronic kidney disease, any grade (400 mg BID (n=4)) | TRAE Chronic kidney disease, grade 3-4 (400 mg BID (n=4)) | TRAE Constipation, any grade (400 mg BID (n=4)) | TRAE Constipation, grade 3-4 (400 mg BID (n=4)) | TRAE Cough, any grade (400 mg BID (n=4)) | TRAE Cough, grade 3-4 (400 mg BID (n=4)) | TRAE Decreased Ccr, any grade (400 mg BID (n=4)) | TRAE Decreased Ccr, grade 3-4 (400 mg BID (n=4)) | TRAE Decreased appetite, any grade (400 mg BID (n=4)) | TRAE Decreased appetite, grade 3-4 (400 mg BID (n=4)) | TRAE Diarrhoea, any grade (400 mg BID (n=4)) | TRAE Diarrhoea, grade 3-4 (400 mg BID (n=4)) | TRAE Dizziness, any grade (400 mg BID (n=4)) | TRAE Dizziness, grade 3-4 (400 mg BID (n=4)) | TRAE Dry mouth, any grade (400 mg BID (n=4)) | TRAE Dry mouth, grade 3-4 (400 mg BID (n=4)) | TRAE Dysgeusia, any grade (400 mg BID (n=4)) | TRAE Dysgeusia, grade 3-4 (400 mg BID (n=4))
1 (8.3) n (%): TRAE Accessory nerve disorder, any grade (300 mg QD (n=12)) | TRAE Activated partial thromboplastin time prolonged, any grade (300 mg QD (n=12)) | TRAE Chest discomfort, any grade (300 mg QD (n=12)) | TRAE Diarrhoea, any grade (300 mg QD (n=12)) | TRAE Dizziness, any grade (300 mg QD (n=12)) | TRAE Dry mouth, any grade (300 mg QD (n=12)) | TRAE Dysgeusia, any grade (300 mg QD (n=12)) | TRAE Electrocardiogram QT prolonged, any grade (300 mg QD (n=12)) | TRAE Elevated serum urea, any grade (300 mg QD (n=12)) | TRAE Headache, any grade (300 mg QD (n=12)) | TRAE Hypertension, any grade (300 mg QD (n=12)) | TRAE Hypotension, any grade (300 mg QD (n=12)) | TRAE Insomnia, any grade (300 mg QD (n=12)) | TRAE PPE, any grade (300 mg QD (n=12)) | TRAE Rash maculo-papular, any grade (300 mg QD (n=12)) | TRAE Upper respiratory tract infection, any grade (300 mg QD (n=12)) | TRAE Ventricular arrhythmia, any grade (300 mg QD (n=12)) | TRAE Ventricular extrasystoles, any grade (300 mg QD (n=12))
